One series concerns Pseudomonas aeruginosa. In words: Antibacterial activity against Pseudomonas aeruginosa ATCC 27853 after 12 hrs by serial plate dilution method. In kind it is functional. Conditions: ATCC 27853, 12 h.
For another series, the system named is Escherichia coli. Kind of series: Antibacterial activity against Escherichia coli ATCC 25922 after 12 hrs by serial plate dilution method. In kind it is functional. The settings on record: ATCC 25922, 12 h.
The next series has as its system Staphylococcus aureus. In words: Antibacterial activity against Staphylococcus aureus ATCC 25923 after 12 hrs by serial plate dilution method. The format is functional. Conditions: ATCC 25923, 12 h.
Series [1] is described as follows: Cytotoxicity against mouse NIH/3T3 cells assessed as cell growth inhibition at 50 ug/mL after 48 hrs by MTT assay. The format is cell-based, NIH3T3. The settings on record: read-out: GI. For orientation: Formazan colour is commonly taken as a measure of viable cells.
Series [2] concerns Mycobacterium tuberculosis. In words: Antimycobacterial activity against Mycobacterium tuberculosis H37Rv after 5 days by fluorescence analysis. In kind it is functional. Conditions: 120 h.

In brackets after ≈: the same amount, converted by molar mass.

As a reminder, the MIC is the lowest concentration found to suppress growth. High values mean a need for much substance, low ones inhibition by little substance. For `Cc1nn2c(/C=N/Nc3nc(-c4ccc(F)cc4)cs3)c(-c3ccc(Cl)cc3)nc2s1`, the MIC against Pseudomonas aeruginosa is 50 µg/mL (≈ 107 µM); against Escherichia coli it was 25 µg/mL (≈ 53.3 µM); in the series on Staphylococcus aureus, 25 µg/mL (≈ 53.3 µM).

Take `Cc1ccc(-c2nc3sc(C)nn3c2/C=N/Nc2nc(-c3ccc(Cl)cc3)cs2)cc1`: the MIC against Pseudomonas aeruginosa, against Escherichia coli and in the series on Staphylococcus aureus was 50 µg/mL (≈ 108 µM) throughout.

Turning to `Cc1ccc(-c2csc(N/N=C/c3c(-c4ccc(C)cc4)nc4sc(C)nn34)n2)cc1`, the results for the MIC against Pseudomonas aeruginosa, in the series on Escherichia coli and in the series with Staphylococcus aureus were 25 µg/mL (≈ 56.2 µM), 50 µg/mL (≈ 112 µM) and 50 µg/mL (≈ 112 µM), respectively.

On to `COc1ccc(-c2csc(N/N=C/c3c(-c4ccc(OC)cc4)nc4sc(C(F)(F)F)nn34)n2)cc1`, for which the MIC in the series with Pseudomonas aeruginosa turned out to be 25 µg/mL (≈ 47.1 µM); in the series with Escherichia coli it was 12.5 µg/mL (≈ 23.6 µM); in the series on Staphylococcus aureus it was 25 µg/mL (≈ 47.1 µM).

For the molecule `COc1ccc(-c2csc(N/N=C/c3c(-c4ccc(C)cc4)nc4sc(C)nn34)n2)cc1`, the MIC stood at 25 µg/mL (≈ 54.3 µM) in the series on Pseudomonas aeruginosa, 50 µg/mL (≈ 109 µM) in the series on Escherichia coli and 50 µg/mL (≈ 109 µM) with Staphylococcus aureus.

Take `Fc1ccc(-c2csc(N/N=C/c3c(-c4ccc(Cl)cc4)nc4sc(C(F)(F)F)nn34)n2)cc1`: the MIC against Pseudomonas aeruginosa was 6.25 µg/mL (≈ 12 µM); in the series on Escherichia coli, 6.25 µg/mL (≈ 12 µM); with Staphylococcus aureus, 12.5 µg/mL (≈ 23.9 µM). Besides, the inhibition at 48 h, 50 ug/mL in series [1] is 15.9%.

As for `Cc1ccc(-c2csc(N/N=C/c3c(-c4ccc(Cl)cc4)nc4sc(C)nn34)n2)cc1`, the MIC against Pseudomonas aeruginosa, against Escherichia coli and against Staphylococcus aureus was 50 µg/mL (≈ 108 µM) each time.

`COc1ccc(-c2nc3sc(C(F)(F)F)nn3c2/C=N/Nc2nc(-c3ccc(C)cc3)cs2)cc1`: the MIC with Pseudomonas aeruginosa was determined as 25 µg/mL (≈ 48.6 µM); with Escherichia coli, 25 µg/mL (≈ 48.6 µM); against Staphylococcus aureus it was 50 µg/mL (≈ 97.2 µM). For the same molecule, the inhibition at 48 h, 50 ug/mL in series [1] worked out at 18.4%.

Consider `COc1ccc(-c2nc3sc(C(F)(F)F)nn3c2/C=N/Nc2nc(-c3ccc(F)cc3)cs2)cc1`, for which the results for the MIC with Pseudomonas aeruginosa, in the series with Escherichia coli and in the series with Staphylococcus aureus were 25 µg/mL (≈ 48.2 µM), 50 µg/mL (≈ 96.4 µM) and 50 µg/mL (≈ 96.4 µM), respectively. In addition, the inhibition at 48 h, 50 ug/mL in series [1] came out at 18.9%.

As to `Cc1ccc(-c2nc3sc(C)nn3c2/C=N/Nc2nc(-c3ccc(F)cc3)cs2)cc1`, the MIC against Pseudomonas aeruginosa, with Escherichia coli and against Staphylococcus aureus was 50 µg/mL (≈ 111 µM) in each case. The inhibition at 48 h, 50 ug/mL in series [1] amounted to 22.3%.

`COc1ccc(-c2csc(N/N=C/c3ccc4c(c3)c3ccccc3n4C)n2)cc1OC` came in with an MIC in series [2] of 21 µM (≈ 9.29 µg/mL).

Consider `COc1ccc(-c2nc3sc(C)nn3c2/C=N/Nc2nc(-c3ccc([N+](=O)[O-])cc3)cs2)cc1`, for which the MIC against Pseudomonas aeruginosa, against Escherichia coli and against Staphylococcus aureus was 25 µg/mL (≈ 50.9 µM) throughout.

For `COc1ccc(-c2nc3sc(C)nn3c2/C=N/Nc2nc(-c3ccc(C)cc3)cs2)cc1`, the MIC against Pseudomonas aeruginosa, with Escherichia coli and against Staphylococcus aureus was 50 µg/mL (≈ 109 µM) each time.

As to `Cc1ccc(-c2nc3sc(C)nn3c2/C=N/Nc2nc(-c3ccc([N+](=O)[O-])cc3)cs2)cc1`, the MIC with Pseudomonas aeruginosa is 12.5 µg/mL (≈ 26.3 µM); against Escherichia coli it was 6.25 µg/mL (≈ 13.1 µM); in the series with Staphylococcus aureus, 12.5 µg/mL (≈ 26.3 µM). Further, the inhibition at 48 h, 50 ug/mL in series [1] amounted to 23.3%.

On to `O=[N+]([O-])c1ccc(-c2csc(N/N=C/c3c(-c4ccc(Cl)cc4)nc4sc(C(F)(F)F)nn34)n2)cc1`, for which the results for the MIC in the series with Pseudomonas aeruginosa, against Escherichia coli and with Staphylococcus aureus were 25 µg/mL (≈ 45.5 µM), 12.5 µg/mL (≈ 22.7 µM) and 12.5 µg/mL (≈ 22.7 µM), respectively.

In the case of `COc1ccc(-c2csc(N/N=C/c3c(-c4ccc(OC)cc4)nc4sc(C)nn34)n2)cc1`, the MIC was determined as 50 µg/mL (≈ 105 µM) in the series with Pseudomonas aeruginosa, 12.5 µg/mL (≈ 26.2 µM) in the series with Escherichia coli and 50 µg/mL (≈ 105 µM) against Staphylococcus aureus.

Turning to `COc1ccc(-c2nc3sc(C)nn3c2/C=N/Nc2nc(-c3ccc(F)cc3)cs2)cc1`, the MIC against Pseudomonas aeruginosa, against Escherichia coli and in the series with Staphylococcus aureus was 50 µg/mL (≈ 108 µM) in each case.

As to `COc1ccc(-c2csc(N/N=C/c3c(-c4ccc(Cl)cc4)nc4sc(C)nn34)n2)cc1`, the MIC was determined as 50 µg/mL (≈ 104 µM) against Pseudomonas aeruginosa, 25 µg/mL (≈ 52 µM) in the series with Escherichia coli and 50 µg/mL (≈ 104 µM) in the series on Staphylococcus aureus. Moreover, the inhibition at 48 h, 50 ug/mL in series [1] was determined as 20.8%.

Take `FC(F)(F)c1nn2c(/C=N/Nc3nc(-c4ccc(Cl)cc4)cs3)c(-c3ccc(Cl)cc3)nc2s1`: the MIC in the series with Pseudomonas aeruginosa was 50 µg/mL (≈ 92.7 µM); in the series on Escherichia coli, 12.5 µg/mL (≈ 23.2 µM); against Staphylococcus aureus, 12.5 µg/mL (≈ 23.2 µM).

For the molecule `COc1ccc(-c2nc3sc(C(F)(F)F)nn3c2/C=N/Nc2nc(-c3ccc(Cl)cc3)cs2)cc1`, the MIC in the series on Pseudomonas aeruginosa, against Escherichia coli and in the series on Staphylococcus aureus was 50 µg/mL (≈ 93.5 µM) throughout.

Turning to `Cc1nn2c(/C=N/Nc3nc(-c4ccc(Cl)cc4)cs3)c(-c3ccc(Cl)cc3)nc2s1`, the MIC in the series on Pseudomonas aeruginosa, with Escherichia coli and with Staphylococcus aureus was 25 µg/mL (≈ 51.5 µM) each time.

On to `COc1ccc(-c2csc(N/N=C/c3c(-c4ccc(Cl)cc4)nc4sc(C(F)(F)F)nn34)n2)cc1`, for which the MIC in the series on Pseudomonas aeruginosa was found to be 25 µg/mL (≈ 46.7 µM); against Escherichia coli it was 12.5 µg/mL (≈ 23.4 µM); in the series with Staphylococcus aureus, 25 µg/mL (≈ 46.7 µM). For the same molecule, the inhibition at 48 h, 50 ug/mL in series [1] came to 14.7%.

For the molecule `Cc1ccc(-c2csc(N/N=C/c3c(-c4ccc(Cl)cc4)nc4sc(C(F)(F)F)nn34)n2)cc1`, the MIC in the series with Pseudomonas aeruginosa, in the series with Escherichia coli and in the series on Staphylococcus aureus was 25 µg/mL (≈ 48.2 µM) each time. In addition, the inhibition at 48 h, 50 ug/mL in series [1] is 19.6%.

As to `COc1ccc(-c2nc3sc(C)nn3c2/C=N/Nc2nc(-c3ccc(Cl)cc3)cs2)cc1`, the MIC is 12.5 µg/mL (≈ 26 µM) in the series with Pseudomonas aeruginosa, 6.25 µg/mL (≈ 13 µM) against Escherichia coli and 12.5 µg/mL (≈ 26 µM) against Staphylococcus aureus. For the same molecule, the inhibition at 48 h, 50 ug/mL in series [1] amounted to 12.7%.
